Measurements reported in patent publication US10399965B2 (INNOVATIVE PHARMACOLOGY RESEARCH OOO (IPHAR), priority 2016, dated 2019).

Assays:
[1] = tested on: outbred male CD-1 mice; assay: Acute toxicity in mice, single oral administration; conditions: male, CD-1, mouse, in vivo
Protocol: (§1) Assessment of acute toxicity of the disclosed compound was performed using outbred male CD-1 mice with SPF status. The test compound was administered in 62.5 mg/kg, 125 mg/kg, 250 mg/kg, 500 mg/kg, 1000 mg/kg, 2000 mg/kg and 5000 mg/kg doses (5 animals per group) in 0.5 ml volume once orally as a suspension in 0.5% aqueous solution of carboxymethyl cellulose.

[2] = Acute toxicity in mice, single oral administration; conditions: CD-1, mouse, in vivo, oral; per os, male mice, single dose
Protocol: as §1

[3] = biological target: T1, Recombinant human tyrosyl-DNA-phosphodiesterase 1 (Tdp1) (Homo sapiens, UniProt Q9NUW8); assay: Tdp1 inhibition, removal of BHQ1 quencher from 3'-end of FAM-labelled oligonucleotide (fluorescence); assay type: biochemical; conditions: 1.3 nM Tdp1, 50 nM oligonucleotide, pH 8.0; read-out: IC50 (concentration of an inhibitor that reduces an enzyme's activity by half) towards Tdp1
T1 construct: made in house; host or cells: Escherichia coli
Description: Recombinant human tyrosyl-DNA-phosphodiesterase 1 (EC number 3.1.4.) was expressed in an Escherichia coli system (plasmid pET 16B-Tdp1 provided by Dr. K. W. Caldecott, Sussex University, UK) and isolated as described in [2, 32]. The reaction of removing Black Hole Quencher 1 (BHQ1) from 3′-end of an oligonucleotide, catalyzed by Tdp1, is used as the test system for determining the inhibitory properties of the test compounds. At the 5′-end of an oligonucleotide there is (5,6)-FAM, a fluorophore whose fluorescence intensity increases after removing the quencher. POLARstar OPTIMA fluorimeter (BMG LABTECH) was used to measure fluorescence.
The reaction mixtures (volume 200 μl) contained the buffer (50 mM Tris-HCl, pH 8.0; 50 mM NaCl; 7 mM mercaptoethanol), 50 nM oligonucleotide and different concentrations of the inhibitor. The reaction was initiated by adding Tdp1 to a final concentration of 1.3 nM. The measurements were performed in linear range of dependence of reaction rate to time (up to 8 minutes) each 55 seconds. The action of the disclosed compounds was assessed by IC50 value (concentration of an inhibitor that reduces an enzyme's activity by half). IC50 value was calculated using MARS Data Analisys 2.0 software (BMG LABTECH).
A typical curve of relation of inhibitor concentration to the rate of reaction, catalyzed by Tdp1, is presented at FIG. 2.

T1 sequence (Q9NUW8 whole entry): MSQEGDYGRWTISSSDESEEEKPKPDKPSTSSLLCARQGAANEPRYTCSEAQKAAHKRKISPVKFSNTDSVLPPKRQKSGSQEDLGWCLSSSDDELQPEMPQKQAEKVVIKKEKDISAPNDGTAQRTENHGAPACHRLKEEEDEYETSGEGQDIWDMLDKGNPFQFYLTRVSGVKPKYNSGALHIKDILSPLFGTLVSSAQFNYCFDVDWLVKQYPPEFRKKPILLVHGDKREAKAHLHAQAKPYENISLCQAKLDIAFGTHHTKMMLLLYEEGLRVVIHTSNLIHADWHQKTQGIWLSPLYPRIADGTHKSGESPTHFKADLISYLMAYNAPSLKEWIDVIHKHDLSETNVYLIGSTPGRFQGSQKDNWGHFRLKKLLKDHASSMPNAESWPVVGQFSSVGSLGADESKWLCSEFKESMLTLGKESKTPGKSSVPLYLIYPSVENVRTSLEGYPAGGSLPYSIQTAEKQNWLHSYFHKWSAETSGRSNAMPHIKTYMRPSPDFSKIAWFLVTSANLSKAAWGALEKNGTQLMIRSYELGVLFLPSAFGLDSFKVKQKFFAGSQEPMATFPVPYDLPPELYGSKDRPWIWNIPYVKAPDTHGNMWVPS

CC(=O)C1=C(O)C=C2Oc3c(-c4csc(N/N=C/c5ccc(Br)cc5)n4)c(O)c(C)c(O)c3C2(C)C1=O (stereo not drawn) [Compound I, 2-acetyl-6-(2-(2-(4-bromobenzylidene)hydrazinyl)thiazole-4-yl)-3,7,9-trihydroxy-8,9b-dimethyldibenzo[b,d] furan-1(9bh)-one]
maximal tolerated dose [1]: no less than 5000 mg/kg
LD50 [2]: > 5000 mg/kg
IC50 [3]: 26 ± 11 nM
